In publication PMC10635324, “A Multi-Site Phase I Trial of Veliparib with Standard Radiation and Temozolomide in Patients with Newly Diagnosed Glioblastoma Multiforme (GBM)” (Research Square, 2023):
Several values for one entry are separate records, joined by “and”; a condition that tells them apart may be missing. Equal entries are not always repeated. Where two headings read alike, the source gives them in different places.

Experiments:
[1] = Plasma pharmacokinetics of veliparib, LC-MS/MS, noncompartmental analysis; type: in vivo, patients; settings: for Cmax: human, plasma, oral, 10 mg, read-out: Cmax, maximum drug concentration in plasma
Experimental: Patients received a single dose of veliparib one day prior to starting combination therapy with TMZ or RT/TMZ for PK testing after the first single dose as described below. Patients without disease progression, as evaluated by MRI 10-weeks after the initiation of veliparib therapy, received up to four maintenance cycles of the same dose of veliparib in the initial safety cohort or six cycles in phase I veliparib/RT/TMZ cohort. Veliparib was to be given BID for 7 days and TMZ 150–200 mg/m^2 QD for 5 days, repeated every 28 days, with an imaging evaluation after completing every second maintenance cycle.
Plasma samples were collected to define plasma concentration-time profiles. Samples were collected shortly before dosing and at 0.25, 0.5, 1, 2, 3, 4, 6, 8, and 24 hours after the first dose of six weeks of TMZ and again after achieving steady-state conditions on any day of week 3 of the six weeks (omitting the 24 hour specimen). Samples were analyzed by liquid chromatography-mass spectrometry (LC-MS)/mass spectrometry (MS), Agilent 410B Triple Quadrupole LC/MS system (Agilent Technologies, Inc., Santa Clara, CA).
The plasma concentration-time data for veliparib was analyzed by noncompartmental methods using model 200 for extravascular input in WinNonlin Professional version 5.0.1. Samples with concentrations below the LLQ of the assay were excluded. The maximum concentration of the drug achieved in plasma (Cmax) and the time that it occurred (tmax) were based upon the observed values following a given dose. Area under the plasma concentration-time curves for 8 h (AUC8) and 24 h (AUC24) after dosing were estimated using the log- linear trapezoidal algorithm. Routines provided in the Data Analysis ToolPak of Microsoft Excel 2003 (11.8231.8221) SP3, Professional Edition (Redmond, WA), were used for the descriptive statistics and statistical tests. Arithmetic averages and standard deviations were calculated for the time of the maximum drug concentration in plasma (tmax). Geometric means were calculated for all other pharmacokinetic variables. The jackknife technique was used to estimate the standard deviation of geometric means.

[2] = test system: patients with newly diagnosed glioblastoma; assay: Phase I dose-limiting toxicities / adverse events (CTCAE v.3.0); type: in vivo
Experimental: This was an open-label, multi-center, phase 1 study. The maximum tolerated dose (MTD) was a dose producing a dose-limiting-toxicity (DLT) rate at 33% or less. A modified 3 + 3 design with 6 patients per dose cohort was used due to 10 weeks long safety evaluation period that potentially 40–50% patient might drop-out study for early disease progression.
The initial safety group of up to 6 patients included patients who had recently completed standard concurrent RT/TMZ) were then treated with one cycle of low-dose veliparib 10 mg BID along with 6 weeks of once-a day (QD) temozolomide 75 mg/m2/d (no RT). Once this one cycle was complete, patients were permitted to transition to monthly cycles of standard adjuvant temozolomide 150–200 mg/m2/d for five consecutive days each month.
If safety was confirmed, then the phase I component including radiotherapy would proceed enrolling cohorts of 6 patients to pre-specified escalating dose levels of daily veliparib, ranging from 10 mg BID to 100 mg twice-daily BID daily along with TMZ (75 mg/m^2/d) for 6 weeks in conjunction with standard radiation 60 Gy in 30 fractions.The protocol specified that if excessive toxicity occurred, de-escalation could be introduced by joint decision of study PI, sponsor, and ABTC leadership to a choice of veliparib 10 mg daily, 10 mg every other day or 10 mg BID 1 week on/1 week off for the 6-week period.
DLTs were events considered possible or probably related to veliparib alone, veliparibib/TMZ or Veliparib/RT per CTCAE v.3.0 including: ≥ grade 3 nonhematological toxicities not resolving with anticonvulsants or steroid treatment excluding grade 3 nausea and dermatitis. Hematologic toxicity was considered dose limiting if there was 1) ANC ≤ 500/mm^3; 2) Platelets ≤ 25,000/mm^3; 3) Grade 3 toxicity that prevents administration of > 75% of the planned temozolomide doses for the first cycle; 4) interruption of treatment for > 14 days. All subjects were monitored for safety throughout the trial.

[3] = test system: patients with newly diagnosed glioblastoma; assay: Survival from the date of study enrollment; type: in vivo; settings: all patients on study
Source text: All subjects were followed until death, and survival from the date of study enrollment was reported to evaluate for any unexpected adverse results.

[4] = parameters: method as in PMID 17473206; settings: rodent model; cited from earlier work
[5] = parameters: method as in PMID 17473206; settings: preclinical, oral; cited from earlier work
[6] = parameters: method as in PMID 19364967; settings: phase 0 clinical trial, oral; cited from earlier work
[7] = test system: patients with MGMT methylation; parameters: method as in doi:10.1200/JCO.2022.40.16_suppl.2001; settings: cited from earlier work
[8] = test system: brain metastasis; parameters: method as in PMID 25682091; settings: Veliparib 40 mg BID or 200 mg BID added to whole brain radiotherapy; cited from earlier work
[9] = parameters: method as in PMID 28243955, PMID 28497258, PMID 30456480, PMID 27503200, PMID 21795476; settings: cited from earlier work
[10] = parameters: method as in PMID 26202595; settings: cited from earlier work
[11] = Single dose 10 mg Veliparib, n=16
[12] = Steady-state 10 mg BID Veliparib, week 3, n=18

SMILES: C[C@]1(c2nc3c(C(N)=O)cccc3[nH]2)CCCN1 [Veliparib]
- Accumulation for BID dosing ([1]; BID dosing): 56%
- CL/F, apparent oral clearance ([1]; Single (initial) dose 10 mg Veliparib, n=16): 27.0 ± 9.0 L/h and 27.0 ± 9.2 L/h
- t1/2,z apparent terminal phase half-life [1, 11]: 5.8 ± 0.9 h
- Cmin, minimum drug concentration in plasma ([1]; Single dose 10 mg Veliparib, n=16, geometric mean ± SD): 2.5 ± 1.3 ng/mL
- CL/F, apparent oral clearance ([1]; Steady-state 10 mg BID Veliparib, n=18): 23.5 ± 10.4 L/h
- Cmin, minimum drug concentration in plasma [1, 12]: 18.4 ± 10.4 ng/mL
- Accumulation ([1]; Steady-state 10 mg BID dosing): 56%
- Cmax [1, 11]: 50.3 ± 19 ng/mL
- Cmax [1, 12]: 66.1 ± 28.7 ng/mL
- Peak and trough concentrations throughout six weeks of daily dosing ([1]; veliparib 20 mg BID concurrently with daily temozolomide (so in the source)): remains stable
- Patients with platelets <25,000/mm^3 ([2]; 12 patients, veliparib 10 mg BID + TMZ + RT): 3 patients
- Anemia ([2]; human, in vivo, 6 weeks): 1 (4.2) n (%)
- Any adverse event (dose limiting, possibly related) ([2]; human, in vivo, 6 weeks): 11 (45.8) n (%)
- Febrile neutropenia ([2]; human, in vivo, 6 weeks): 1 (4.2) n (%)
- Neutropenia ([2]; human, in vivo, 6 weeks): 2 (8.3) n (%)
- Pancytopenia ([2]; human, in vivo, 6 weeks): 1 (4.2) n (%)
- Subjects with ≥ 1 AE (Blood and Lymphatic Systemic Disorders) ([2]; human, in vivo, 6 weeks): 9 (37.5) n (%)
- Thrombocytopenia ([2]; human, in vivo, 6 weeks): 7 (29.2) n (%)
- Number of dose limiting toxicities (DLT) ([2]; in vivo): one
- Tolerable dose (maximum tolerated dose) ([2]; with TMZ and six weeks of standard radiation, even with 50% dose reductions): a tolerable dose of veliparib could not be found
- Survival at 2 years [3]: 25%
- Median survival ([3]; 95%CI: 8–16 months): 13 months
- Crossing of the blood brain barrier [4]: cross the blood brain barrier
- Bioavailability [5]: good bioavailability
- Bioavailability [6]: good bioavailability
- Hematologic toxicity (neutropenia, thrombocytopenia, and anemia) ([7]; veliparib 40 mg BID each day of standard adjuvant TMZ (days 1–5) after concurrent RT/TMZ): increased but acceptable hematologic toxicity
- Survival benefit ([7]; veliparib 40 mg BID each day of standard adjuvant TMZ (days 1–5)): without survival benefit
- Adverse events compared with placebo [8]: no increase in adverse events
- Effect of TMZ co-administration on the clearance of veliparib [9]: no effect
- Effect of veliparib coadministration on TMZ plasma exposures [10]: does not affect
